Assays:
Assay in all cases: pIC50, kinobeads binding competition
Conditions in all cases: cell material: Jurkat lysate
[1] = biological target: T1, UniProt Q8IW41
T1 sequence (whole entry): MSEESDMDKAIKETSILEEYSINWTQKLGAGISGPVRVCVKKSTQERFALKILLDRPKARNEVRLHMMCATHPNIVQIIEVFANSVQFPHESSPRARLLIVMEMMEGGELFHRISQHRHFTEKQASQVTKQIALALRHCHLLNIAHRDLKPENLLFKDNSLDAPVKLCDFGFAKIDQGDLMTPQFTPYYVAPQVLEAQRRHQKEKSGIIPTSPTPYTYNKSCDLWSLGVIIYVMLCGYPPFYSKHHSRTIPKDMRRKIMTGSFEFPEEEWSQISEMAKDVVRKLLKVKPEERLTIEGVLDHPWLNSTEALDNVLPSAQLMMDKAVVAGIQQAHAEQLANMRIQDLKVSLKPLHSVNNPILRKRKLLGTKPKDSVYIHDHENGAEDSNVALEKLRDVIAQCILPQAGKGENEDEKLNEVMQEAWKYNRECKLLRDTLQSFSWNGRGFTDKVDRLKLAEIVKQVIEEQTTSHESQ

[2] = biological target: T2, MAP4K3 (UniProt Q8IVH8)
T2 sequence (whole entry): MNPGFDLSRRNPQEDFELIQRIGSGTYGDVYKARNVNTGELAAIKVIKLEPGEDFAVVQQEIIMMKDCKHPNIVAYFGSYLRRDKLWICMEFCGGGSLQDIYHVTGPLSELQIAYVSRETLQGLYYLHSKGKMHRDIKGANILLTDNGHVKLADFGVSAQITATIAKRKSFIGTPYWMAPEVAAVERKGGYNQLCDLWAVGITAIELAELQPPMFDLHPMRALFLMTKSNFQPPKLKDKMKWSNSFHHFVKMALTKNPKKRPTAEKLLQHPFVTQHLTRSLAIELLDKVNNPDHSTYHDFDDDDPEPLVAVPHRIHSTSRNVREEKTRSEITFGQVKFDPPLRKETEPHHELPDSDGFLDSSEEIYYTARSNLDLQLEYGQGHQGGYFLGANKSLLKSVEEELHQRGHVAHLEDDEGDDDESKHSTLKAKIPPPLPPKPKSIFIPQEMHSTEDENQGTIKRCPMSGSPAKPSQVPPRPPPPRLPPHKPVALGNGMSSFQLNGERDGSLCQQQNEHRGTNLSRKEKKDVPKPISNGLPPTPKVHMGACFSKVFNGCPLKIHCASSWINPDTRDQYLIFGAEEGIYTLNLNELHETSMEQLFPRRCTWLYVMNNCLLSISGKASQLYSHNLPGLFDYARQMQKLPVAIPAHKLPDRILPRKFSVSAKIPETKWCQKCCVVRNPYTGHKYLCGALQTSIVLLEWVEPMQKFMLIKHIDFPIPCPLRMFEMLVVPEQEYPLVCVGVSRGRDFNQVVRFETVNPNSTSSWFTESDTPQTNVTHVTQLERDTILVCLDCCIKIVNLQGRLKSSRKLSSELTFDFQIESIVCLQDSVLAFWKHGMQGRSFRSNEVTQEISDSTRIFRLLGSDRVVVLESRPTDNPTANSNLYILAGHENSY

[3] = biological target: MELK (UniProt Q14680)
Chain of MELK (Q14680 whole entry, looked up): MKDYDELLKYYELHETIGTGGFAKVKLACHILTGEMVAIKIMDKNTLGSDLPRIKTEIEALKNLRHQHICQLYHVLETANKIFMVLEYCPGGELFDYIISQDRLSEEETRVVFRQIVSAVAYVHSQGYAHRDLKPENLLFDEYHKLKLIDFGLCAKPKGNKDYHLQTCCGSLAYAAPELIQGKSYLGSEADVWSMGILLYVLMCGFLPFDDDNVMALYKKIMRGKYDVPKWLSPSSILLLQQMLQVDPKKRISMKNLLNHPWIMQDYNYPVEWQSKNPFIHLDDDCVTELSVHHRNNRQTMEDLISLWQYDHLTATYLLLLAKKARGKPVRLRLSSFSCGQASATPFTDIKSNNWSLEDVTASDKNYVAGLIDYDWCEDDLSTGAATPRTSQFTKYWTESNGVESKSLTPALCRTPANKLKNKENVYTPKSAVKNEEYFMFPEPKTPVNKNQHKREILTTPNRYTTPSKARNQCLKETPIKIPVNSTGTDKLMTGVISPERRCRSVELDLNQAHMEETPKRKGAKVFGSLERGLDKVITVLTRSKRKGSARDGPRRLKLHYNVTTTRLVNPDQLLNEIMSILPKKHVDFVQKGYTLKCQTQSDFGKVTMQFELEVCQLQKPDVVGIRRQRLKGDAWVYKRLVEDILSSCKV

[4] = biological target: UniProt Q13557
[5] = biological target: ABL2 (UniProt P42684)
Chain of ABL2 (P42684 whole entry): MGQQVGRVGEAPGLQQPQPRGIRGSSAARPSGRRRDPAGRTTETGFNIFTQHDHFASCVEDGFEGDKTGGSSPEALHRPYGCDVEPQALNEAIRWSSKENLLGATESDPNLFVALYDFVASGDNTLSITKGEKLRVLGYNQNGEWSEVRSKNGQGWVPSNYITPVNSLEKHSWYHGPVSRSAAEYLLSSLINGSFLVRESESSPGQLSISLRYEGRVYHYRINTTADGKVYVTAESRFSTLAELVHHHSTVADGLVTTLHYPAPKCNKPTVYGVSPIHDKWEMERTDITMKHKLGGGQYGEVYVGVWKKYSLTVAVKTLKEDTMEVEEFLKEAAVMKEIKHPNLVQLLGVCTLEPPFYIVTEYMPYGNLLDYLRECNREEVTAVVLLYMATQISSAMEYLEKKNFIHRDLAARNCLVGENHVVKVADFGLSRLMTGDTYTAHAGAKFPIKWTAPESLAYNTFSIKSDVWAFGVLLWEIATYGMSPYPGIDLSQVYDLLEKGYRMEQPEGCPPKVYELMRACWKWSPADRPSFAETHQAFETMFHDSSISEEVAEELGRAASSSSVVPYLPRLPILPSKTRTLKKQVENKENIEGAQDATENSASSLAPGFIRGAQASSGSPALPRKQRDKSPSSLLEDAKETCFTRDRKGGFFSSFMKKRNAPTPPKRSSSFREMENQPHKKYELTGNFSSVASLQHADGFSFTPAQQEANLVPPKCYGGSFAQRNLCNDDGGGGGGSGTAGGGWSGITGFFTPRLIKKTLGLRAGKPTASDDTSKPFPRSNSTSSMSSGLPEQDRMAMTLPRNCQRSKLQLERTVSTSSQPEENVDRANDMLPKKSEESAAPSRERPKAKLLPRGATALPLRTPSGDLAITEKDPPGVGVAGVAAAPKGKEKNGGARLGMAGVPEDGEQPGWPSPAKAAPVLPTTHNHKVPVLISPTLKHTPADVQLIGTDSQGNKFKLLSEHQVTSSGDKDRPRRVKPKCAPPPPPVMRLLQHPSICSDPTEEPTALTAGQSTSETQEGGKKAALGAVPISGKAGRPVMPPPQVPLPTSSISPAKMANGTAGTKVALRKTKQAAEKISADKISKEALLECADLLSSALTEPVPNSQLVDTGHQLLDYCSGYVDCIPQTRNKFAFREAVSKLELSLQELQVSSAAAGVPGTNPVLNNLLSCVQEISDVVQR

[6] = biological target: MAP3K4 (UniProt Q9Y6R4)
Chain of MAP3K4 (Q9Y6R4 whole entry): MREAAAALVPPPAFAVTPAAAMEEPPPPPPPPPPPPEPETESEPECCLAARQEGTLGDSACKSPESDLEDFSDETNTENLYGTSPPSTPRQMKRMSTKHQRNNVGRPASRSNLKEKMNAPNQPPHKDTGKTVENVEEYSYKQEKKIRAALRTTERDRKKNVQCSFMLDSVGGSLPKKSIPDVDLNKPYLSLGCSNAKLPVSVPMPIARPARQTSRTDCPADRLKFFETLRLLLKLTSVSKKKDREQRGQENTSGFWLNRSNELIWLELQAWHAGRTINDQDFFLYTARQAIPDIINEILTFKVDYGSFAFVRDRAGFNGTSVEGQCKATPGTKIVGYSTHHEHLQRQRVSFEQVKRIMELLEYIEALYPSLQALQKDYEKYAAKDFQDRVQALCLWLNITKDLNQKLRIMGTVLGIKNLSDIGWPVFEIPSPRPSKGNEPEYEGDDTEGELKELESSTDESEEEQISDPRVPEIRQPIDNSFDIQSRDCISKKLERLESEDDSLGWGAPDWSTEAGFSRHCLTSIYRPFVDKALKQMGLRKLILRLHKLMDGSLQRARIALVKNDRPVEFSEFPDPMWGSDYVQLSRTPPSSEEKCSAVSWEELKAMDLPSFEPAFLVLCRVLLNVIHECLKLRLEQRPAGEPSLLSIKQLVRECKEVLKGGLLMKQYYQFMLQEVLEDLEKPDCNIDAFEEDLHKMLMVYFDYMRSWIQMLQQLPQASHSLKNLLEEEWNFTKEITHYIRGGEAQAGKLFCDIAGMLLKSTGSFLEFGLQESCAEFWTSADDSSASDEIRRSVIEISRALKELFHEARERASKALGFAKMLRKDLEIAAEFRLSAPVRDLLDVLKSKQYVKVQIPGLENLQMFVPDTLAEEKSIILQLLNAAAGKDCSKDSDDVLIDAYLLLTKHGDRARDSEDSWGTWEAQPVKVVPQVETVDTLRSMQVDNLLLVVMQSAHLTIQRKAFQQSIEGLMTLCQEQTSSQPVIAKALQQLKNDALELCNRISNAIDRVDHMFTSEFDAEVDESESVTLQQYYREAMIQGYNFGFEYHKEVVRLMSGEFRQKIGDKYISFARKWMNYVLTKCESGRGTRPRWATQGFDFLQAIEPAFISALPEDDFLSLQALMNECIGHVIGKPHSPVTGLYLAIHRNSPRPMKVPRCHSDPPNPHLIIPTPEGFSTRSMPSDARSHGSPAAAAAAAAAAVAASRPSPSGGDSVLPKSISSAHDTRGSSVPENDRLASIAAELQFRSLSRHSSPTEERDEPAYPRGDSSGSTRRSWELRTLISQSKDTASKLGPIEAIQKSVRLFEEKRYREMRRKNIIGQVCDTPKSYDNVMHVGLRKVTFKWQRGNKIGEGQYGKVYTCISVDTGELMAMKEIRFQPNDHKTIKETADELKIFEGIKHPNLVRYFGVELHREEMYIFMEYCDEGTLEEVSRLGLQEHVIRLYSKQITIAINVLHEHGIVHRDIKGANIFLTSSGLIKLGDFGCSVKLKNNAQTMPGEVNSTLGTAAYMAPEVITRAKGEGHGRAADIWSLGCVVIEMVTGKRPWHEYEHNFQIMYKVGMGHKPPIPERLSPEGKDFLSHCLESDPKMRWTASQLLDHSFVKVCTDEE

[7] = biological target: EIF2AK4 (UniProt Q9P2K8)
[8] = biological target: PIM3 (UniProt Q86V86)
[9] = biological target: UniProt Q13164
Chain of UniProt Q13164 (Q13164 whole entry, looked up): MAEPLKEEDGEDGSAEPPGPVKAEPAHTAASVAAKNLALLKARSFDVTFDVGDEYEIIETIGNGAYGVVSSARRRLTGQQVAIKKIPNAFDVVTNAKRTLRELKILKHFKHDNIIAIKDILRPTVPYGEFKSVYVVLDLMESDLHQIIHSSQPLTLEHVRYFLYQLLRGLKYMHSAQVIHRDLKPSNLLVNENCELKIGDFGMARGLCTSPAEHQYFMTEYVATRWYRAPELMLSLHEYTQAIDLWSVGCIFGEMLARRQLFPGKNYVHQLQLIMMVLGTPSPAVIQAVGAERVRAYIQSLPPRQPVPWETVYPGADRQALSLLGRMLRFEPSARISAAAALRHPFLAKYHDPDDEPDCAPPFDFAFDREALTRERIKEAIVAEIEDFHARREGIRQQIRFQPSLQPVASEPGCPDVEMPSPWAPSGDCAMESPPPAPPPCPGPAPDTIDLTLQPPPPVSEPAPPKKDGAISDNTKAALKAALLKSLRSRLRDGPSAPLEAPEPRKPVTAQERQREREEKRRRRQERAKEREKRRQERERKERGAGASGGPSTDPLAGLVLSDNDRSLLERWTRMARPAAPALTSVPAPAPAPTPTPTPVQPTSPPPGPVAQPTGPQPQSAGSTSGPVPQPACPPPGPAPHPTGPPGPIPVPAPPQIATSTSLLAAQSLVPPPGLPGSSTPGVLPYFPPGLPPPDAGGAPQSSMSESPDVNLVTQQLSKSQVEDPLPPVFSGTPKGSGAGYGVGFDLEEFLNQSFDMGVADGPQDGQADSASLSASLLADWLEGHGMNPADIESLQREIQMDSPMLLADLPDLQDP

[10] = biological target: T3, EPHA3 (UniProt P29320)
T3 sequence (whole entry): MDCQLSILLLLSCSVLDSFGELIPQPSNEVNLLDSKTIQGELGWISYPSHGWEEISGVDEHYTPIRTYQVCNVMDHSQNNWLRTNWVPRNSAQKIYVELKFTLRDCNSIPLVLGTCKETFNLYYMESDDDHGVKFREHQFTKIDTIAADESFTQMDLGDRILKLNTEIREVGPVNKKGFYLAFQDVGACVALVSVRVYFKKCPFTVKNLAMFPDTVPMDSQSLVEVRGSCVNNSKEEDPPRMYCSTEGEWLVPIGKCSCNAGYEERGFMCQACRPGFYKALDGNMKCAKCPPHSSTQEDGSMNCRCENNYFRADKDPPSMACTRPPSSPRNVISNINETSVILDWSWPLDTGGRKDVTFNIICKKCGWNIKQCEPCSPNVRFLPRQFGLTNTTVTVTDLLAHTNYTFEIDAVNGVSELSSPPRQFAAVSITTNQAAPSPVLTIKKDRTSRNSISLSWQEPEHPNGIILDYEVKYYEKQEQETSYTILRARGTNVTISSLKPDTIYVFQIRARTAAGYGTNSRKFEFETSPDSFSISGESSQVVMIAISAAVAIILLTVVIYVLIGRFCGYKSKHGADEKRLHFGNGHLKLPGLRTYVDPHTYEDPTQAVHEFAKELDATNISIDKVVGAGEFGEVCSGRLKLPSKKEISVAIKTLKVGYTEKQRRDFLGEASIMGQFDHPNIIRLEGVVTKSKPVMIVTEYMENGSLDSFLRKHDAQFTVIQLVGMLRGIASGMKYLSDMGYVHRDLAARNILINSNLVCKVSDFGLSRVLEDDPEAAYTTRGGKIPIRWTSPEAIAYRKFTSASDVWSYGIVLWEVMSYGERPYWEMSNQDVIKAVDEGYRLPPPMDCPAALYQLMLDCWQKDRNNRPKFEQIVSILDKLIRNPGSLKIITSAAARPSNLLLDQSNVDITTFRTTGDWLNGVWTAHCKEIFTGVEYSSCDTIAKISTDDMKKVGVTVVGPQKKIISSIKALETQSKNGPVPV

[11] = biological target: UniProt Q9Y2H1
Chain of UniProt Q9Y2H1 (Q9Y2H1 whole entry, looked up): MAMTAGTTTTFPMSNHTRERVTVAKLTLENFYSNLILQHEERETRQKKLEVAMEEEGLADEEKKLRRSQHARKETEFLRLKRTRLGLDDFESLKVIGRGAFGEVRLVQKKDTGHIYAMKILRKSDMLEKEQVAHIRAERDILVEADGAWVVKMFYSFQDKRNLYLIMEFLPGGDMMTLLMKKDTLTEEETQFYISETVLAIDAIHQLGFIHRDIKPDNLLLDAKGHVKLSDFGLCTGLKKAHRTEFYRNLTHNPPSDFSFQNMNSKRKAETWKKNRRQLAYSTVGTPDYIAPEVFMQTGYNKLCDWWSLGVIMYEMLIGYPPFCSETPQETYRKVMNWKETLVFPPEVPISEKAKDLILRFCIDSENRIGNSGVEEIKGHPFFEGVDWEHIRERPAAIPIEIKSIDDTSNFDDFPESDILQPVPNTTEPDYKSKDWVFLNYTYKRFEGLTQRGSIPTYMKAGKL

[12] = biological target: IRAK1 (UniProt P51617)

Measured: pIC50

CCc1cnn2c(NCc3ccc[n+]([O-])c3)cc(N3CCCC[C@H]3CCO)nc12 [dinaciclib]
< 4.52: all assays above

Source: the supplement of paper PMC12076712
